Patent US20220339143A1, “TAK-925 FOR USE IN TREATING NARCOLEPSY” (Takeda Pharmaceutical Company Limited, priority 2019, published 2022)
Where two headings read alike, the source gives them in different places.

Test: Single dose PK in healthy subjects (Cohorts 1, 2, S1 and S2), plasma
Type: in vivo, human
Conditions: human, plasma
Method: This study investigates (i) the safety and tolerability of Compound A (methyl (2R,3S)-3-((methylsulfonyl)amino)-2-(((cis-4-phenylcyclohexyl)oxy)methyl)piperidine-1-carboxylate) when a single dose given as a 9 hour continuous IV infusion is administered to healthy adults, healthy elderly subjects and patients with narcolepsy type 1 (NT1); (ii) the pharmacokinetics of Compound A when a single dose given as a 9 hour continuous IV infusion is administered to healthy adults, healthy elderly subjects and patients with narcolepsy type 1; and (iii) the pharmacodynamics (PD) effects of Compound A, primarily by evaluation of the sleep latency on MWT when a single dose given as a 9 hour continuous IV infusion is administered to patients with narcolepsy type 1.
Pharmacokinetics: Concentrations of Compound A in plasma, and CSF, and pharmacokinetics parameters.
On average, the time to reach the plateau appeared to be approximately 3 to 4 hours after the start of infusion. […] After switching off the IV infusion, Compound A plasma concentrations declined rapidly and in a biphasic manner with a mean terminal disposition phase t1/2z ranging approximately from 3.4 to 5.1 hours across all doses. […] Table 5 provides a summary of plasma concentrations of Compound A after a single IV infusion in healthy subjects. Table 6 provides a summary of pharmacokinetic parameters of Compound A after a single IV infusion in healthy subjects.

[1] = intravenous, 180 mg, read-out: Plasma concentration, Maximum
[2] = intravenous, 180 mg, read-out: Plasma concentration, Mean
[3] = intravenous, 180 mg, read-out: Plasma concentration, Median
[4] = intravenous, 180 mg, read-out: Plasma concentration, Minimum
[5] = intravenous, 180 mg, read-out: Plasma concentration, Q1
[6] = intravenous, 180 mg, read-out: Plasma concentration, Q3
[7] = intravenous, 240 mg, read-out: Plasma concentration, Mean
[8] = intravenous, 240 mg, read-out: Plasma concentration, Minimum
[9] = intravenous, 240 mg, read-out: Plasma concentration, Q1

## COC(=O)N1CCC[C@H](NS(C)(=O)=O)[C@@H]1CO[C@H]1CC[C@@H](c2ccccc2)CC1 [Compound A, methyl (2R,3S)-3-((methylsulfonyl)amino)-2-(((cis-4-phenylcyclohexyl)oxy)methyl)piperidine-1-carboxylate]
[1]
  concentration at 1 h: 265 ng/mL
  concentration at 1.5 h: 304 ng/mL
  concentration at 2 h: 341 ng/mL
  concentration at 3 h: 355 ng/mL
  concentration at 4 h: 361 ng/mL
  concentration at 6 h: 322 ng/mL
  concentration at 8 h: 337 ng/mL
[2]
  concentration at 1 h: 216 ng/mL
  concentration at 1.5 h: 255 ng/mL
  concentration at 2 h: 294 ng/mL
  concentration at 3 h: 315 ng/mL
  concentration at 4 hr: 328 ng/mL
  concentration at 6 hr: 292 ng/mL
  concentration at 8 h: 300 ng/mL
[3]
  concentration at 1 hr: 215 ng/mL
  concentration at 1.5 hr: 242 ng/mL
  concentration at 2 hr: 292 ng/mL
  concentration at 3 hr: 314 ng/mL
  concentration at 4 hr: 325 ng/mL
  concentration at 6 hr: 292 ng/mL
  concentration at 8 hr: 292 ng/mL
[4]
  concentration at 1 hr: 173 ng/mL
  concentration at 1.5 hr: 224 ng/mL
  concentration at 2 hr: 251 ng/mL
  concentration at 3 hr: 276 ng/mL
  concentration at 4 hr: 293 ng/mL
  concentration at 6 hr: 252 ng/mL
  concentration at 8 hr: 275 ng/mL
[5]
  concentration at 1 hr: 201 ng/mL
  concentration at 1.5 hr: 228 ng/mL
  concentration at 2 hr: 271 ng/mL
  concentration at 3 hr: 307 ng/mL
  concentration at 4 hr: 304 ng/mL
  concentration at 6 hr: 285 ng/mL
  concentration at 8 hr: 277 ng/mL
[6]
  concentration at 1 h: 229 ng/mL
  concentration at 1.5 h: 290 ng/mL
  concentration at 2 h: 320 ng/mL
  concentration at 3 h: 324 ng/mL
  concentration at 4 h: 358 ng/mL
  concentration at 6 h: 311 ng/mL
  concentration at 8 hr: 330 ng/mL
intravenous, 180 mg, 9 hr, read-out: Plasma concentration, Maximum
  concentration at 9 h: 364 ng/mL
intravenous, 180 mg, 9 hr, read-out: Plasma concentration, Mean
  concentration at 9 h: 325 ng/mL
intravenous, 180 mg, 9 hr, read-out: Plasma concentration, Median
  concentration at 9 hr: 316 ng/mL
intravenous, 180 mg, 9 hr, read-out: Plasma concentration, Minimum
  concentration at 9 hr: 285 ng/mL
intravenous, 180 mg, 9 hr, read-out: Plasma concentration, Q1
  concentration at 9 hr: 311 ng/mL
intravenous, 180 mg, 9 hr, read-out: Plasma concentration, Q3
  concentration at 9 hr: 358 ng/mL
intravenous, 240 mg, 0.5 hr, read-out: Plasma concentration, Mean
  concentration at 0.5 h: 292 ng/mL
intravenous, 240 mg, 0.5 hr, read-out: Plasma concentration, Minimum
  concentration at 0.5 hr: 228 ng/mL
intravenous, 240 mg, 0.5 hr, read-out: Plasma concentration, Q1
  concentration at 0.5 hr: 230 ng/mL
[7]
  concentration at 1 h: 345 ng/mL
  concentration at 1.5 h: 388 ng/mL
  concentration at 2 h: 403 ng/mL
  concentration at 3 h: 456 ng/mL
  concentration at 4 h: 493 ng/mL
  concentration at 6 h: 428 ng/mL
  concentration at 8 h: 474 ng/mL
[8]
  concentration at 1 hr: 265 ng/mL
  concentration at 1.5 hr: 315 ng/mL
  concentration at 2 hr: 337 ng/mL
  concentration at 3 hr: 393 ng/mL
  concentration at 4 hr: 388 ng/mL
  concentration at 6 hr: 335 ng/mL
  concentration at 8 h: 393 ng/mL
[9]
  concentration at 1 hr: 286 ng/mL
  concentration at 1.5 hr: 333 ng/mL
  concentration at 2 hr: 349 ng/mL
  concentration at 3 hr: 400 ng/mL
  concentration at 4 hr: 423 ng/mL
  concentration at 6 hr: 366 ng/mL
  concentration at 8 hr: 409 ng/mL
intravenous, 240 mg, 9 hr, read-out: Plasma concentration, Mean
  concentration at 9 h: 497 ng/mL
intravenous, 240 mg, 9 hr, read-out: Plasma concentration, Minimum
  concentration at 9 hr: 417 ng/mL
intravenous, 240 mg, 9 hr, read-out: Plasma concentration, Q1
  concentration at 9 hr: 452 ng/mL
iv, 7 mg, 7 mg single IV infusion, healthy subjects, read-out: AUC24 Geo Mean
  AUC: 140 ng·h/mL
iv, 7 mg, 7 mg single IV infusion, healthy subjects, read-out: AUC24 Mean
  AUC: 142 ng·h/mL
iv, 7 mg, 7 mg single IV infusion, healthy subjects, read-out: AUC24 Median
  AUC: 142 ng·h/mL
iv, 7 mg, 7 mg single IV infusion, healthy subjects, read-out: AUCinf Geo Mean
  AUC(0-inf): 142 ng·h/mL
iv, 7 mg, 7 mg single IV infusion, healthy subjects, read-out: AUCinf Mean
  AUC(0-inf): 143 ng·h/mL
iv, 7 mg, 7 mg single IV infusion, healthy subjects, read-out: AUCinf Median
  AUC(0-inf): 146 ng·h/mL
iv, 7 mg, 7 mg single IV infusion, healthy subjects, read-out: AUClast Geo Mean
  AUC(0-t): 138 ng·h/mL
iv, 7 mg, 7 mg single IV infusion, healthy subjects, read-out: AUClast Mean
  AUC(0-t): 140 ng·h/mL
iv, 7 mg, 7 mg single IV infusion, healthy subjects, read-out: AUClast Median
  AUC(0-t): 142 ng·h/mL
iv, 7 mg, 7 mg single IV infusion, healthy subjects, read-out: CL Mean (converted)
  clearance: 833 mL/min
iv, 7 mg, 7 mg single IV infusion, healthy subjects, read-out: Ceoi Geo Mean
  concentration at 9 h: 13.4 ng/mL
iv, 7 mg, 7 mg single IV infusion, healthy subjects, read-out: Ceoi Mean
  concentration at 9 h: 13.5 ng/mL
iv, 7 mg, 7 mg single IV infusion, healthy subjects, read-out: Ceoi Median
  concentration at 9 h: 13.9 ng/mL
iv, 7 mg, 7 mg single IV infusion, healthy subjects, read-out: Cmax Geo Mean
  Cmax: 16.7 ng/mL
iv, 7 mg, 7 mg single IV infusion, healthy subjects, read-out: Cmax Mean
  Cmax: 16.9 ng/mL
iv, 7 mg, 7 mg single IV infusion, healthy subjects, read-out: Cmax Median
  Cmax: 16.5 ng/mL
iv, 7 mg, 7 mg single IV infusion, healthy subjects, read-out: Vss Mean
  Vd: 82.9 L
iv, 7 mg, 7 mg single IV infusion, healthy subjects, read-out: Vz Mean
  Vd: 292 L
iv, 7 mg, 7 mg single IV infusion, healthy subjects, read-out: Vz Median
  Vd: 303 L
iv, 7 mg, 7 mg single IV infusion, healthy subjects, read-out: tmax Mean
  Tmax: 3 h
iv, 7 mg, 7 mg single IV infusion, healthy subjects, read-out: tmax Median
  Tmax: 3 h
iv, 14 mg, 14 mg single IV infusion, healthy subjects, read-out: AUC24 Geo Mean
  AUC: 323 ng·h/mL
iv, 14 mg, 14 mg single IV infusion, healthy subjects, read-out: AUC24 Mean
  AUC: 326 ng·h/mL
iv, 14 mg, 14 mg single IV infusion, healthy subjects, read-out: AUC24 Median
  AUC: 322 ng·h/mL
iv, 14 mg, 14 mg single IV infusion, healthy subjects, read-out: AUCinf Geo Mean
  AUC(0-inf): 328 ng·h/mL
iv, 14 mg, 14 mg single IV infusion, healthy subjects, read-out: AUCinf Mean
  AUC(0-inf): 331 ng·h/mL
